From patent US8575156B2, “Cyclic inhibitors of 11β-hydroxysteroid dehydrogenase 1” (Vitae Pharmaceuticals, Inc., priority 2007, dated 2013)
Where two headings read alike, the source gives them in different places.

Biological target: 11β-HSD1 (Homo sapiens, UniProt P28845)
Assay: biochemical
Details: for IC50: IC50 Range, Biological Test Example 1, microsomes from CHO cells overexpressing human 11β-HSD1
[1] = read-out: Average % inhibition at 100 nM, Biological Test Example 1, 100 nM compound
[2] = read-out: Average % inhibition at 100 nM, Biological Test Example 1, 100 nM

11β-HSD1, sequence (P28845 whole entry): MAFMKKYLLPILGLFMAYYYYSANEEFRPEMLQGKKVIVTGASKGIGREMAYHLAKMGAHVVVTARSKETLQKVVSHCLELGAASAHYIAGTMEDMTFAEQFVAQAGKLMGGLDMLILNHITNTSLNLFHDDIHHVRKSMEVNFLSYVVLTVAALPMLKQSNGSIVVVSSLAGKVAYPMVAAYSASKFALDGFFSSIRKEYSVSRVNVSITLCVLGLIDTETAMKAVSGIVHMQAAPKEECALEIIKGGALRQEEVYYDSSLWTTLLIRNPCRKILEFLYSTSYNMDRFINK

Q: For `CCC[C@]1(c2ccccc2)CCN([C@@H](C)c2ccc(-c3ccc(F)cc3F)cc2)C(=O)O1` [EXAMPLE 226, (R)-3-((S)-1-(2′,4′-difluorobiphenyl-4-yl)ethyl)-6-phenyl-6-propyl-1,3-oxazinan-2-one], which IC50 is on record?
A: < 100 nM

Q: What about the inhibition at 0.1 µM [1] of the same compound?
A: 90.7%

Q: `C[C@@H](c1ccc(-c2ccc(F)cc2F)cc1)N1CC[C@](CCS(C)(=O)=O)(c2ccc(F)cc2)OC1=O` [EXAMPLE 229, (S)-3-((S)-1-(2′,4′-difluorobiphenyl-4-yl)ethyl)-6-(4-fluorophenyl)-6-(2-(methylsulfonyl)ethyl)-1,3-oxazinan-2-one] was tested. Which IC50 did it give?
A: < 100 nM

Q: And the inhibition at 0.1 µM (read-out: Average % inhibition at 100 nM)?
A: 81.6%

Q: Which results are given for `C=CC[C@]1(c2ccc(F)cc2)CCN([C@@H](C)c2ccc(N3CCN(C)CC3)cc2)C(=O)O1` [EXAMPLE 231, (R)-6-allyl-6-(4-fluorophenyl)-3-((S)-1-(4-(4-methylpiperazin-1-yl)phenyl)ethyl)-1,3-oxazinan-2-one]?
A: IC50: < 100 nM; inhibition at 0.1 µM [1]: 57%

Q: For `C[C@@H](c1ccc(-c2ccc(F)cc2)cc1)N1CC[C@](CCCO)(c2cccs2)OC1=O` [EXAMPLE 232, (R)-3-((S)-1-(4′-fluorobiphenyl-4-yl)ethyl)-6-(3-hydroxypropyl)-6-(thiophen-2-yl)-1,3-oxazinan-2-one], which IC50 is on record?
A: < 100 nM

Q: What about the inhibition at 0.1 µM [1] of the same compound?
A: 96.9%

Q: Which IC50 does the source give for `CC[C@@H](c1ccc(Br)cc1)N1CC[C@](CCCO)(c2ccc(F)cc2)OC1=O` [EXAMPLE 241, (R)-3-((S)-1-(4-bromophenyl)propyl)-6-(4-fluorophenyl)-6-(3-hydroxypropyl)-1,3-oxazinan-2-one] here?
A: < 100 nM

Q: And the inhibition at 0.1 µM [1]?
A: 96.7%

Q: How did the IC50 turn out when `C=CC[C@]1(c2ccc(F)cc2)CCN([C@@H](C)c2ccc(C(=O)N3CCCCC3)cc2)C(=O)O1` [EXAMPLE 243, (R)-6-allyl-6-(4-fluorophenyl)-3-((S)-1-(4-(piperidine-1-carbonyl)phenyl)ethyl)-1,3-oxazinan-2-one] was run?
A: < 100 nM

Q: What about the inhibition at 0.1 µM [1] of the same compound?
A: 38.9%

Q: Which results are given for `C[C@@H](c1ccc(-c2ccc(F)cc2)cc1)N1CC[C@](CCC(C)(C)O)(c2ccccc2)OC1=O` [EXAMPLE 248, (R)-3-((S)-1-(4′-fluorobiphenyl-4-yl)ethyl)-6-(3-hydroxy-3-methylbutyl)-6-phenyl-1,3-oxazinan-2-one]?
A: IC50: < 100 nM; inhibition at 0.1 µM [1]: 96.7%

Q: Which IC50 does the source give for `CC(=O)c1ccc(-c2ccc([C@H](C)N3CC[C@](CCCO)(c4ccccc4)OC3=O)cc2)s1` [EXAMPLE 249, (R)-3-((S)-1-(4-(5-acetylthiophen-2-yl)phenyl)ethyl)-6-(3-hydroxypropyl)-6-phenyl-1,3-oxazinan-2-one] here?
A: < 100 nM

Q: And the inhibition at 0.1 µM [1]?
A: 96.3%

Q: With `C[C@@H](c1ccc(-c2ccc(F)cc2F)cc1)N1CC[C@](CCC(N)=O)(c2ccccc2)OC1=O` [EXAMPLE 250, 3-((R)-3-((S)-1-(2′,4′-difluorobiphenyl-4-yl)ethyl)-2-oxo-6-phenyl-1,3-oxazinan-6-yl)propanamide] as the compound, how does the IC50 read?
A: < 100 nM

Q: What about the inhibition at 0.1 µM [1] of the same compound?
A: 97.1%

Q: `CC(N)c1ccc(-c2ccc([C@H](C)N3CC[C@](CCCO)(c4ccccc4)OC3=O)cc2)s1` (stereo partly drawn) [EXAMPLE 251, (6R)-3-((1S)-1-(4-(5-(1-aminoethyl)thiophen-2-yl)phenyl)ethyl)-6-(3-hydroxypropyl)-6-phenyl-1,3-oxazinan-2-one] was tested. Which IC50 did it give?
A: < 100 nM

Q: And the inhibition at 0.1 µM [1]?
A: 90.9%

Q: With `CC[C@@H](c1ccc(-c2ccc(F)cc2)cc1)N1CC[C@](CCCO)(c2ccc(F)cc2)OC1=O` [EXAMPLE 252, (R)-3-((S)-1-(4′-fluorobiphenyl-4-yl)propyl)-6-(4-fluorophenyl)-6-(3-hydroxypropyl)-1,3-oxazinan-2-one] as the compound, how does the IC50 read?
A: < 100 nM

Q: And the inhibition at 0.1 µM [1]?
A: 99%

Q: How did the IC50 turn out when `CC[C@@H](c1ccc(-c2ccc(F)cc2F)cc1)N1CC[C@](CCCO)(c2ccccc2)OC1=O` [EXAMPLE 253, (R)-3-((S)-1-(2′,4′-difluorobiphenyl-4-yl)propyl)-6-(3-hydroxypropyl)-6-phenyl-1,3-oxazinan-2-one] was run?
A: < 100 nM

Q: And the inhibition at 0.1 µM [1]?
A: 93.3%

Q: `CC(O)c1ccc(-c2ccc([C@H](C)N3CC[C@](CCCO)(c4ccccc4)OC3=O)cc2)s1` (stereo partly drawn) [EXAMPLE 254, (6R)-3-((1S)-1-(4-(5-(1-hydroxyethyl)thiophen-2-yl)phenyl)ethyl)-6-(3-hydroxypropyl)-6-phenyl-1,3-oxazinan-2-one] was tested. Which IC50 did it give?
A: < 100 nM

Q: What about the inhibition at 0.1 µM [1] of the same compound?
A: 96%

Q: Which results are given for `C[C@@H](c1ccc(N2CCCCS2(=O)=O)cc1)N1CC[C@](CCO)(c2ccc(F)cc2)OC1=O` [EXAMPLE 259, (S)-6-(4-fluorophenyl)-6-(2-hydroxyethyl)-3-((S)-1-(4-(1,1-dioxo-hexahydro-1,2-thiazin-2-yl)phenyl)ethyl)-1,3-oxazinan-2-one]?
A: IC50: < 100 nM; inhibition at 0.1 µM [1]: 43.1%

Q: For `C[C@@H](c1ccc(-c2ccc(F)cc2F)cc1)N1CC[C@](CCC(C)(C)O)(c2ccccc2)OC1=O` [EXAMPLE 260, (R)-3-((S)-1-(2′,4′-difluorobiphenyl-4-yl)ethyl)-6-(3-hydroxy-3-methylbutyl)-6-phenyl-1,3-oxazinan-2-one], which IC50 is on record?
A: < 100 nM

Q: And the inhibition at 0.1 µM [1]?
A: 94.1%

Q: What does the source list for `CC[C@@H](c1ccc(-c2ccc(F)cc2F)cc1)N1CC[C@](CCCO)(c2ccc(F)cc2)OC1=O` [EXAMPLE 261, (R)-3-((S)-1-(2′,4′-difluorobiphenyl-4-yl)propyl)-6-(4-fluorophenyl)-6-(3-hydroxypropyl)-1,3-oxazinan-2-one]?
A: IC50: < 100 nM; inhibition at 0.1 µM [1]: 96.2%

Q: What does the source list for `CNCC(O)C[C@]1(c2ccc(F)cc2)CCN([C@@H](C)c2ccc(-c3ccc(F)cc3F)cc2)C(=O)O1` (stereo partly drawn) [EXAMPLE 265, (6S)-3-((S)-1-(2′,4′-difluorobiphenyl-4-yl)ethyl)-6-(4-fluorophenyl)-6-(2-hydroxy-3-(methylamino)propyl)-1,3-oxazinan-2-one]?
A: IC50: < 100 nM; inhibition at 0.1 µM [1]: 56.8%

Q: Which results are given for `C[C@@H](c1ccc(-c2ccc(F)cc2)cc1)N1CC[C@](CCCNS(C)(=O)=O)(c2ccccc2)OC1=O` [EXAMPLE 270, N-(3-((R)-3-((S)-1-(4′-fluorobiphenyl-4-yl)ethyl)-2-oxo-6-phenyl-1,3-oxazinan-6-yl)propyl)methanesulfonamide]?
A: IC50: < 100 nM; inhibition at 0.1 µM [1]: 96.1%

Q: What does the source list for `C[C@@H](c1ccc(-c2ccc(F)cc2F)cc1)N1CC[C@](CCCOC(N)=O)(c2ccc(F)cc2)OC1=O` [EXAMPLE 272, 3-((R)-3-((S)-1-(2′,4′-difluorobiphenyl-4-yl)ethyl)-6-(4-fluorophenyl)-2-oxo-1,3-oxazinan-6-yl)propyl carbamate]?
A: IC50: < 100 nM; inhibition at 0.1 µM [1]: 93.8%

Q: Which IC50 does the source give for `C[C@@H](c1ccccc1F)N1CC[C@](CCCO)(c2ccc(F)cc2)OC1=O` [EXAMPLE 284, (R)-6-(4-fluorophenyl)-3-((S)-1-(2-fluorophenyl)ethyl)-6-(3-hydroxypropyl)-1,3-oxazinan-2-one] here?
A: < 100 nM

Q: And the inhibition at 0.1 µM [1]?
A: 97.7%

Q: Which IC50 does the source give for `C[C@@H](c1ccc(F)cc1)N1CC[C@](CCCO)(c2ccc(F)cc2)OC1=O` [EXAMPLE 285, (R)-6-(4-fluorophenyl)-3-((S)-1-(4-fluorophenyl)ethyl)-6-(3-hydroxypropyl)-1,3-oxazinan-2-one] here?
A: < 100 nM

Q: And the inhibition at 0.1 µM [1]?
A: 96.2%

Q: For `C[C@@H](c1ccc(Cl)cc1)N1CC[C@](CCC(N)=O)(c2ccccc2)OC1=O` [EXAMPLE 287, 3-((R)-3-((S)-1-(4-chlorophenyl)ethyl)-2-oxo-6-phenyl-1,3-oxazinan-6-yl)propanamide], which IC50 is on record?
A: < 100 nM

Q: What about the inhibition at 0.1 µM [1] of the same compound?
A: 89.8%

Q: For `C[C@@H](c1cccc(F)c1)N1CC[C@](CCC(N)=O)(c2ccc(F)cc2)OC1=O` [EXAMPLE 288, 3-((R)-6-(4-fluorophenyl)-3-((S)-1-(3-fluorophenyl)ethyl)-2-oxo-1,3-oxazinan-6-yl)propanamide], which IC50 is on record?
A: < 100 nM

Q: What about the inhibition at 0.1 µM [1] of the same compound?
A: 72.4%

Q: How did the IC50 turn out when `C[C@@H](c1cccc(C(F)(F)F)c1)N1CC[C@](CCCO)(c2ccc(F)cc2)OC1=O` [EXAMPLE 293, (R)-6-(4-fluorophenyl)-6-(3-hydroxypropyl)-3-((S)-1-(3-(trifluoromethyl)phenyl)ethyl)-1,3-oxazinan-2-one] was run?
A: < 100 nM

Q: What about the inhibition at 0.1 µM [1] of the same compound?
A: 94%

Q: With `C[C@@H](c1ccc(C(F)(F)F)cc1)N1CC[C@](CCCO)(c2ccc(F)cc2)OC1=O` [EXAMPLE 294, (R)-6-(4-fluorophenyl)-6-(3-hydroxypropyl)-3-((S)-1-(4-(trifluoromethyl)phenyl)ethyl)-1,3-oxazinan-2-one] as the compound, how does the IC50 read?
A: < 100 nM

Q: And the inhibition at 0.1 µM [1]?
A: 97.2%

Q: Which results are given for `C[C@@H](c1cccc(C(F)(F)F)c1)N1CC[C@](CCC(N)=O)(c2ccc(F)cc2)OC1=O` [EXAMPLE 299, 3-((R)-6-(4-fluorophenyl)-2-oxo-3-((S)-1-(3-(trifluoromethyl)phenyl)ethyl)-1,3-oxazinan-6-yl)propanamide]?
A: IC50: < 100 nM; inhibition at 0.1 µM [1]: 71.7%

Q: With `COc1ccc([C@H](C)N2CC[C@](CCNS(C)(=O)=O)(c3ccc(F)cc3)OC2=O)cc1` [EXAMPLE 301, N-(2-((S)-6-(4-fluorophenyl)-3-((S)-1-(4-methoxyphenyl)ethyl)-2-oxo-1,3-oxazinan-6-yl)ethyl)methanesulfonamide] as the compound, how does the IC50 read?
A: < 100 nM

Q: What about the inhibition at 0.1 µM [1] of the same compound?
A: 86.7%

Q: How did the IC50 turn out when `C[C@@H](c1ccc(S(C)(=O)=O)cc1)N1CC[C@](CCO)(c2ccc(F)cc2)OC1=O` [EXAMPLE 308, (S)-6-(4-fluorophenyl)-6-(2-hydroxyethyl)-3-((S)-1-(4-(methylsulfonyl)phenyl)ethyl)-1,3-oxazinan-2-one] was run?
A: > 1000 nM

Q: What about the inhibition at 0.1 µM [2] of the same compound?
A: 25%

Q: What about the inhibition at 0.1111 µM (read-out: Average % inhibition at 111.1 nM, Biological Test Example 1, 111.1 nM) of the same compound?
A: 8.6%

Q: Which results are given for `C[C@@H](c1ccc(-c2ccc(F)cc2)cc1)N1CC[C@](CCCOP(=O)(O)O)(c2ccccc2)OC1=O` [EXAMPLE 310, 3-((R)-3-((S)-1-(4′-fluorobiphenyl-4-yl)ethyl)-2-oxo-6-phenyl-1,3-oxazinan-6-yl)propyl dihydrogen phosphate]?
A: IC50: < 100 nM; inhibition at 0.1 µM [2]: 77.5%

Q: Which results are given for `Cc1cc(-c2ccc([C@H](C)N3CC[C@](CCCO)(c4ccc(F)cc4)OC3=O)cc2)ccn1` [EXAMPLE 311, (R)-6-(4-fluorophenyl)-6-(3-hydroxypropyl)-3-((S)-1-(4-(2-methylpyridin-4-yl)phenyl)ethyl)-1,3-oxazinan-2-one]?
A: IC50: < 100 nM; inhibition at 0.1 µM [2]: 96.7%
